The text below walks through data of US5071858A, “Antipsychotic benzothiopyranylamines” (Ciba-Geigy Corporation, priority 1990, dated 1991).

Data set [1] concerns the target T1, serotonin-2 receptor (5HT-2 receptor) (Rattus norvegicus, UniProt P14842).
T1 construct: membrane preparations of frontal/parietal cortex from male Sprague-Dawley rats; from tissue; host or cells: frontal/parietal cortex membranes of male Sprague-Dawley rats
Put plainly: serotonin-2 receptor binding assay (3H-ketanserin displacement). Particulars: frontal/parietal cortex membranes of male Sprague-Dawley rats. The method, then:
The compounds described above are active e.g. in the following test system indicative of serotonin-2 receptor antagonism: The serotonin-2 receptor (also named 5-hydroxytryptamine-2 or 5HT-2 receptor) binding properties are determined in vitro by measuring the ability of said compounds to inhibit the specific binding of ^3 H-ketanserin in membrane preparations of frontal/parietal cortex from male Sprague-Dawley rats essentially as described by
Battaglia et al. in Life Sciences 33, 2011 (1983). IC50 values, representing the concentration of compound required to displace 50% of ^3 H-ketanserin, are determined by log-logit analysis of the specific binding data. Illustrative of the invention, the compound of example 1 is effective in the serotonin-2 receptor binding assay having an […] value of about 5 nM.

Data set [2] deals with Sidman avoidance responding. Put plainly: Sidman avoidance model. The class given is in vivo, squirrel monkey (Samiri sciureus). Particulars: squirrel monkeys. The method, then: The test is carried out as follows: Adult male squirrel monkeys (Samiri sciureus, 700-1200 g) are trained to press a lever to delay by 20 sec. the delivery of a brief electrical footshock. If the animal fails to respond within a 20 sec. interval, brief (0.5 sec.) shocks (5 mA) are delivered every 20 sec. until the animal again presses the lever. The total number of avoidance responses and avoidance failures (shocks received) are recorded during the test session, which lasts 4 hours. The monkeys are tested two days per week, the first day serving as a baseline control. The test compound is administered orally in a cornstarch vehicle 10 min. prior to the start of the test session. […] An approximate dose ratio of three between avoidance blockade and induction of dyskinesias is found for the compound of example 1.

T1 sequence (P14842 whole entry): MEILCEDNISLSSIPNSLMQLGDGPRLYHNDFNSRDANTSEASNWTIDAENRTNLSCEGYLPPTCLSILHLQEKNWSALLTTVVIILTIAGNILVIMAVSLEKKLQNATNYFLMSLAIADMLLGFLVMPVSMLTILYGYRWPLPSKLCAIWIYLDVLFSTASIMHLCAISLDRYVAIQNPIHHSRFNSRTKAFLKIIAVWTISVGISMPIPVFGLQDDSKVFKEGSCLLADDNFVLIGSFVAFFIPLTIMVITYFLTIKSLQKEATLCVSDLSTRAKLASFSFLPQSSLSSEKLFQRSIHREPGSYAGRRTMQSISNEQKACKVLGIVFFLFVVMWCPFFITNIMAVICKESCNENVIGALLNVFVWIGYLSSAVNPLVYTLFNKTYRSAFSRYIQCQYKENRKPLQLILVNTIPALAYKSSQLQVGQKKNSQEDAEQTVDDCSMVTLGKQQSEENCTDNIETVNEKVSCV

Turning to `O=C(c1ccc(F)cc1)C1CCN(CC2CSc3ccc(F)cc3C2)CC1` (centres unmarked) [Example 1, 1-[(6-Fluoro-3,4-dihydro-2H-1-benzothiopyran-3-yl)methyl]-4-piperidinyl p-fluorophenyl ketone], in data set [1], the EC50 – broadly, the concentration at which the effect is half-maximal – was roughly 5 nM. The “dose ratio between avoidance blockade and induction of dyskinesias” value in data set [2] is listed as “three”.
